Each structure is given as a SMILES string.

Holding throughout (type): biochemical
Experiment [1] concerns the target SRC (Homo sapiens, UniProt P12931). Put plainly: Inhibition of a panel of kinases, in vitro HotSpot kinase assay: SRC. As to conditions: D-compounds panel data; 1 μM ATP. How it is done: (§1) The degree of inhibition of a panel of kinases is determined using the in vitro HotSpot kinase assay (purified enzymes, ^33P-ATP, an appropriate substrate and 1 μM ATP).
In experiment [2] the target is T1, TEC (Homo sapiens, UniProt P42680).
T1 sequence (P42680 1-631): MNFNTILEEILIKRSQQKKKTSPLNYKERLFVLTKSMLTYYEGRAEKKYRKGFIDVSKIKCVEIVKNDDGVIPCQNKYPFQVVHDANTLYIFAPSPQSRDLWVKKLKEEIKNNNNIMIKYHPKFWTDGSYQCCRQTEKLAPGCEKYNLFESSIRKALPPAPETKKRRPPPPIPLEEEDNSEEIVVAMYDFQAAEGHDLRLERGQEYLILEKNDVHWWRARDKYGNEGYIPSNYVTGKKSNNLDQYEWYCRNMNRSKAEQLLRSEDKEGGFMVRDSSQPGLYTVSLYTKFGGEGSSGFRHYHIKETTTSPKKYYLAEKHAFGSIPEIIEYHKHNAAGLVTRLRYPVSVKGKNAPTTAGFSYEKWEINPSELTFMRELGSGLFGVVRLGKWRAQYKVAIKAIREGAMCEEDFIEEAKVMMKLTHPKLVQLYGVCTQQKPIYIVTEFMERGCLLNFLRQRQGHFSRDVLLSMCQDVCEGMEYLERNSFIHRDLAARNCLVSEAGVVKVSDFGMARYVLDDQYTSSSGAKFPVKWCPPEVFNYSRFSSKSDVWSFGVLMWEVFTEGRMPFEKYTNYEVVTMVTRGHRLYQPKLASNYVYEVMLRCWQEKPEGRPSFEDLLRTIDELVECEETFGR
Description: Inhibition of a panel of kinases, in vitro HotSpot kinase assay: TEC. As to conditions: D-compounds panel data; 1 μM ATP. How it is done:
as §1

Experiment [3] deals with T2, JAK3 (Homo sapiens, UniProt P52333).
T2 sequence (P52333 1-1124): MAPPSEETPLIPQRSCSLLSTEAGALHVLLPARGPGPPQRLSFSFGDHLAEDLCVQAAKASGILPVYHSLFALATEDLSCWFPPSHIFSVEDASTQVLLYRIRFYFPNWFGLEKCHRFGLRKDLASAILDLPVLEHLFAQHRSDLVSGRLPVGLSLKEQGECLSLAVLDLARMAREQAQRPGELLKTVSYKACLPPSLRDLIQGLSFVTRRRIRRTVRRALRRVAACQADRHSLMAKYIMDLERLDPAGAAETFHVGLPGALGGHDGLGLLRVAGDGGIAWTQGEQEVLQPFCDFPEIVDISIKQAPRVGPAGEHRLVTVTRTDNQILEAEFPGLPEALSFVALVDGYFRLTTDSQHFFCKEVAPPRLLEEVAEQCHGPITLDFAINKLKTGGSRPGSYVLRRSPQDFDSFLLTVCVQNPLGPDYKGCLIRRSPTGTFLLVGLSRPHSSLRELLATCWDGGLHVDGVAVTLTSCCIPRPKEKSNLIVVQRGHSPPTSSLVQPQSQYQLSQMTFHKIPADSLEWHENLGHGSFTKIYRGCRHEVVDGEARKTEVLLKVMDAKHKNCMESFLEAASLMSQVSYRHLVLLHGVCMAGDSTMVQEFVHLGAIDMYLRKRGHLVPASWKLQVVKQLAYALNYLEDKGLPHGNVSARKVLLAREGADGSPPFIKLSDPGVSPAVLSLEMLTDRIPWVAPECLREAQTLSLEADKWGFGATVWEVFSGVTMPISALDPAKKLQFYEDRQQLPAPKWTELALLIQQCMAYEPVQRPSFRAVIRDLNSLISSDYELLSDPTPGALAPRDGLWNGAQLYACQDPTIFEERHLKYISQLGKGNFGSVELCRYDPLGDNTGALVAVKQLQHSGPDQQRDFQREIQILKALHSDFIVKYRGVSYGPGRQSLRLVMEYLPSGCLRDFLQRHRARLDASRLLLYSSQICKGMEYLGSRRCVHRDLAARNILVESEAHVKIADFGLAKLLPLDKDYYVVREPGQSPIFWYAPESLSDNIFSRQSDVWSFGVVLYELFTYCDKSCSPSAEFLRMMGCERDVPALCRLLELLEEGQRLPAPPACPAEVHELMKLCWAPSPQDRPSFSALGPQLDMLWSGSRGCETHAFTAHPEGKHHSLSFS
Put plainly: Inhibition of a panel of kinases, in vitro HotSpot kinase assay: JAK3. The conditions noted are these: D-compounds panel data; 1 μM ATP; read-out: IC50 JAK3.

SRC, sequence (P12931 whole entry): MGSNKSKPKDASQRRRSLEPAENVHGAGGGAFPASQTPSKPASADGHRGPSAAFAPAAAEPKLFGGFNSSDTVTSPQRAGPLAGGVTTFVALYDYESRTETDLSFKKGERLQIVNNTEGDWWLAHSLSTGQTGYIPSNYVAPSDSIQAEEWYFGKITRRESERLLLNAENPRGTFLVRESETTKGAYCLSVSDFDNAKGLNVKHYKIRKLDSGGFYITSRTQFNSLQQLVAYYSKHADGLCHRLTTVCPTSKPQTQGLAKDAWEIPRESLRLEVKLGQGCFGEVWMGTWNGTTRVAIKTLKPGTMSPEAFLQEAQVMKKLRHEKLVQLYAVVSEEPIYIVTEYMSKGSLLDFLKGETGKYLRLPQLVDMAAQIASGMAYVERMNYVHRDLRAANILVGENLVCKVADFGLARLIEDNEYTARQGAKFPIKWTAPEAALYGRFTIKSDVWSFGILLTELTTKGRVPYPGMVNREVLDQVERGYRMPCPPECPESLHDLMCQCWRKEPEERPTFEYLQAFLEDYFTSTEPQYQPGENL

Consider `C[C@@H]1[C@H](NC(=O)N(C)C)CCCN1c1cnc(C(N)=O)c(Nc2ccc(N3CCN(C)CC3)cc2)c1` [Example D-127, 5-[(2R,3R)-3-[(dimethylcarbamoyl)amino]-2-methylpiperidin-1-yl]-3-{[4-(4-methylpiperazin-1-yl)phenyl]amino}pyridine-2-carboxamide], for which the IC50 in experiment [1] was 1000 to 10000 nM; in experiment [2], 1000 to 10000 nM; in experiment [3], greater than 10000 nM.

For `C[C@@H]1[C@H](NC(=O)c2ccc(C3CC3)cc2)CCCN1c1cnc(C(N)=O)c(Nc2cc(CN3CCCCC3)ns2)n1` [Example D-140, 5-[(2R,3R)-3-(4-cyclopropylbenzamido)-2-methylpiperidin-1-yl]-3-{[3-(piperidin-1-ylmethyl)-1,2-thiazol-5-yl]amino}pyrazine-2-carboxamide], the IC50 was 10 to 100 nM in experiment [1], 10 to 100 nM in experiment [2] and 100 to 1000 nM in experiment [3].

As to `Cc1cccc(-c2cnc(C3CCCN(c4cnc(C(N)=O)c(Nc5cnn(C)c5)n4)C3)[nH]2)c1` [Example D-148, 3-[(1-methyl-1H-pyrazol-4-yl)amino]-5-{3-[5-(3-methylphenyl)-1H-imidazol-2-yl]piperidin-1-yl}pyrazine-2-carboxamide], the IC50 in experiment [1] fell in the range of 100 to 1000 nM; in experiment [2], 100 to 1000 nM; in experiment [3], 1000 to 10000 nM.

On to `C[C@@H]1[C@H](NC(=O)c2ccc(C3CC3)cc2)CCCN1c1cnc(C(N)=O)c(Nc2ccc(C3(C)CCN(C4CCCC4)CC3)cc2)n1` [Example D-112, 3-{[4-(1-cyclopentyl-4-methylpiperidin-4-yl)phenyl]amino}-5-[(2R,3R)-3-(4-cyclopropylbenzamido)-2-methylpiperidin-1-yl]pyrazine-2-carboxamide], for which the values for the IC50 in experiment [1], in experiment [2] and in experiment [3] were no more than 10 nM, no more than 10 nM and 100 to 1000 nM, respectively.

As for `C[C@@H]1[C@H](NC(=O)c2ccc(C3CC3)cc2F)CCCN1c1cnc(C(N)=O)c(Nc2ccc(CN3CCN(C)CC3)cc2)c1` [Example D-125, 5-[(2R,3R)-3-(4-cyclopropyl-2-fluorobenzamido)-2-methylpiperidin-1-yl]-3-({4-[(4-methylpiperazin-1-yl)methyl]phenyl}amino)pyridine-2-carboxamide], the IC50 in experiment [1], in experiment [2] and in experiment [3] was 1000 to 10000 nM in each case.

On to `C[C@@H]1[C@H](NC(=O)c2ccc(C3CC3)cc2)CCCN1c1cnc(C(N)=O)c(Nc2ccc(N3CCC(C(C)(C)O)CC3)cc2)n1` [Example D-100, 5-[(2R,3R)-3-(4-cyclopropylbenzamido)-2-methylpiperidin-1-yl]-3-({4-[4-(2-hydroxypropan-2-yl)piperidin-1-yl]phenyl}amino)pyrazine-2-carboxamide], for which the IC50 in experiment [1] is 10 to 100 nM; in experiment [2], no more than 10 nM; in experiment [3] it was 1000 to 10000 nM.

As to `C[C@@H]1[C@H](NC(=O)c2ccc(C(F)(F)F)cc2)CCCN1c1cnc(C(N)=O)c(Nc2ccc(N3CCN(C)CC3)cc2)n1` [Example D-11, 5-[(2R,3R)-2-methyl-3-[4-(trifluoromethyl)benzamido]piperidin-1-yl]-3-{[4-(4-methylpiperazin-1-yl)phenyl]amino}pyrazine-2-carboxamide], the values for the concentration for half-maximal inhibition (IC50) in experiment [1], in experiment [2] and in experiment [3] were 10 to 100 nM, 10 to 100 nM and 1000 to 10000 nM, respectively.

With `Cc1ccc(-c2cnc([C@@H]3CCCN(c4cnc(C(N)=O)c(Nc5cc(C)ns5)n4)C3)[nH]2)cc1` [Example D-137, 3-[(3-methyl-1,2-thiazol-5-yl)amino]-5-[(3R)-3-[5-(4-methylphenyl)-1H-imidazol-2-yl]piperidin-1-yl]pyrazine-2-carboxamide], the values for the IC50 in experiment [1], in experiment [2] and in experiment [3] were 1000 to 10000 nM, 1000 to 10000 nM and greater than 10000 nM, respectively.

The record behind these values is patent publication US20210070748A1, “INHIBITORS OF BRUTONS TYROSINE KINASE” (Pharmacyclics LLC, priority 2015, published 2021).
